Series [1] addresses Beta Secretase enzyme (BACE) (Homo sapiens (Human), UniProt P56817). Briefly: In vitro enzymatic BACE FRET assay. Particulars: read-out: BACE1 Enzyme assay IC50. It is filed as biochemical.
Protocol: In Vitro Enzymatic BACE FRET (Fluorescence Resonance Energy Transfer) Assay (Enzyme Assay Data in the Example Table I)
The assay buffer used in this screen is 0.05 M acetate, pH 4.2, 10% DMSO final, 100 uM genapol (which is a nonionic detergent, below its Critical Micelle Concentration). […] This assay is effectively started by the addition of FRET substrate (50 nM) and the combination is incubated for one hour. The FRET assay is terminated with by addition of Tris buffer, which raises the pH to neutrality, and the fluorescence is determined. The FRET substrate is a peptide with commercially available fluorophore and quencher, on opposite sides of the BACE cleavage site.
The target of series [2] is Recombinant Cat D (Cathepsin D) (Homo sapiens (Human), UniProt P07339). Briefly: In vitro enzymatic Cathepsin D (Cat D) FRET assay. It counts as biochemical. Particulars: read-out: CatD IC50.
Protocol: Recombinant Cat D was expressed in CHO cells. The assay buffer for CathepsinD is 0.05 M citrate pH 3.5, 10% DMSO final, 5 mM CHAPS. […] The assays are effectively started by the addition of different FRET substrates (20 nM for Cat D) and the combination is incubated for one hour. The FRET assay is terminated with by addition of Tris buffer, which raises the pH to neutrality, and the fluorescence is determined. The FRET substrate is a peptide with commercially available fluorophore and quencher, on opposite sides of the BACE cleavage site. […] Proteolytic cleavage of the FRET substrate releases quenching of fluorescence (Cat D excitation 500 nm and emission 580 nm).
The subject of a further series is Aβ in lumbar CSF. Particulars: healthy volunteers, cited from earlier work.

The values below come from patent US9611261B2, “Perfluorinated cyclopropyl fused 1,3-oxazin-2-amine compounds as beta-secretase inhibitors and methods of use” (AMGEN INC., priority 2013, dated 2017).

The structures appear in SMILES notation.

In general, IC50 refers to the midpoint of a concentration-inhibition curve.

Sequence of Beta Secretase enzyme (BACE) (P56817 46-501, species assumed): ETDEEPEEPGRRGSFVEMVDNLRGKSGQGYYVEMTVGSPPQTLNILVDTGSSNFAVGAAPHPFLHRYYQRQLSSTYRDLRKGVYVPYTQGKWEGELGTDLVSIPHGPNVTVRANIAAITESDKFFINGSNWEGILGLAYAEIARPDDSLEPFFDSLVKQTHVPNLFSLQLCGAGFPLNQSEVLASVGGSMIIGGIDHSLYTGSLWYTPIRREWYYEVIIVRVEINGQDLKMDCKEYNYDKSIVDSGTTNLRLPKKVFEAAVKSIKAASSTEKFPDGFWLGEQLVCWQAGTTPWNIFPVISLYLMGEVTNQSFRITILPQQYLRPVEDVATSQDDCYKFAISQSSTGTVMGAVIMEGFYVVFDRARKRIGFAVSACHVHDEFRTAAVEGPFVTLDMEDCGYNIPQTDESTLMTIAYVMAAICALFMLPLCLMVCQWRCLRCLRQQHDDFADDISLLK
Sequence of Recombinant Cat D (Cathepsin D) (P07339 65-412, species assumed): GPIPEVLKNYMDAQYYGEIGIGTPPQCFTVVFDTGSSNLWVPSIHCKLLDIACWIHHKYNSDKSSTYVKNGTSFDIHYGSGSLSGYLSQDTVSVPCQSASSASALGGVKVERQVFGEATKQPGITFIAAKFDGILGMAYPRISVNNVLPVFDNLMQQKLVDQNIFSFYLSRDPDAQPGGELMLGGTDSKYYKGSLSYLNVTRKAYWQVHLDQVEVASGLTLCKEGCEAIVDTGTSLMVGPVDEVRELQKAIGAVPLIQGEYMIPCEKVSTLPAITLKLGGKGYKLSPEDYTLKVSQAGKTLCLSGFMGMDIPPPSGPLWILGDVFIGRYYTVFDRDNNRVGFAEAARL

In the case of `NC1=N[C@@](c2cc(NC(=O)c3cnc(Cl)cn3)ccc2F)(C(F)F)[C@H]2C[C@H]2O1` [Example 261, N-(3-((1R,5S,6R)-3-amino-5-(difluoromethyl)-2-oxa-4-azabicyclo[4.1.0]hept-3-en-5-yl)-4-fluorophenyl)-5-chloropyrazine-2-carboxamide], the half-inhibitory concentration (IC50) turned out to be 0.037 µM in series [1] and 444 µM in series [2]. In the same order, the values of `N#Cc1cnc2c(c1)CCC[C@@H]2Nc1ccc(F)c([C@@]2(C(F)F)N=C(N)O[C@@H]3C[C@@H]32)c1` (mixture of isomers) [Example 403, (R)-8-((3-((1R,5S,6R)-3-amino-5-(difluoromethyl)-2-oxa-4-azabicyclo[4.1.0]hept-3-en-5-yl)-4-fluorophenyl)amino)-5,6,7,8-tetrahydroquinoline-3-carbonitrile and (S)-8-((3-((1R,5S,6R)-3-amino-5-(difluoromethyl)-2-oxa-4-azabicyclo[4.1.0]hept-3-en-5-yl)-4-fluorophenyl)amino)-5,6,7,8-tetrahydroquinoline-3-carbonitrile] are 2.85 µM and 469 µM. Turning to `N#Cc1cnc2c(c1)CC[C@@H]2Nc1ccc(F)c([C@@]2(C(F)F)N=C(N)O[C@@H]3C[C@@H]32)c1` [Example 404], the IC50 in series [1] worked out at 0.291 µM. Consider `COc1cc(Cl)cnc1C(=O)Nc1ccc(Cl)c([C@@]2(CF)N=C(N)O[C@@H]3C[C@@H]32)c1` [Example 297, N-(3-((1R,5S,6R)-3-amino-5-(fluoromethyl)-2-oxa-4-azabicyclo[4.1.0]hept-3-en-5-yl)-4-chlorophenyl)-5-chloro-3-methoxypicolinamide], for which the IC50 in series [2] came to 835 µM. For `N#Cc1ccc2c(c1)OCC[C@@H]2Nc1ccc(F)c([C@@]2(C(F)F)N=C(N)O[C@@H]3C[C@@H]32)c1` (mixture of isomers) [Example 383, (R)-4-((3-((1R,5S,6R)-3-amino-5-(difluoromethyl)-2-oxa-4-azabicyclo[4.1.0]hept-3-en-5-yl)-4-fluorophenyl)amino)chroman-7-carbonitrile and (S)-4-((3-((1R,5S,6R)-3-amino-5-(difluoromethyl)-2-oxa-4-azabicyclo[4.1.0]hept-3-en-5-yl)-4-fluorophenyl)amino)chroman-7-carbonitrile], the results for the IC50 in series [1] and in series [2] were 0.968 µM and 206 µM, respectively.

As for `C#CCOc1cnc(C(=O)Nc2cc(F)c(Cl)c([C@]3(CF)N=C(N)O[C@H]4C[C@H]43)c2)cn1` (racemic) [Example 140, N-(3-((1R/S,5S/R,6R/S)-3-amino-5-(fluoromethyl)-2-oxa-4-azabicyclo[4.1.0]hept-3-en-5-yl)-4-chloro-5-fluorophenyl)-5-(prop-2-yn-1-yloxy)pyrazine-2-carboxamide], the figures for the IC50 in series [1] and in series [2] were 0.006 µM and 86.9 µM, respectively. The corresponding values for `C[C@@]1(c2cc(NC(=O)c3ccc(Cl)cn3)cnc2F)N=C(N)O[C@H]2C[C@H]21` [Example 333] are 0.13 µM and 816 µM. In the same order, the values of `COc1cnc2c(Nc3cc(Cl)c(F)c([C@@]4(CF)N=C(N)O[C@@H]5C[C@@H]54)c3)nccc2n1` [Example 356, (1R,5S,6R)-5-(3-chloro-2-fluoro-5-((2-methoxypyrido[3,4-b]pyrazin-5-yl)amino)phenyl)-5-(fluoromethyl)-2-oxa-4-azabicyclo[4.1.0]hept-3-en-3-amine] are 0.0659 µM and 725 µM. For `C[C@@]1(c2cc(-c3cncnc3)c(F)cc2F)CCSC(N)=N1` [LY2811376, (S)-4-(2,4-difluoro-5-pyrimidin-5-yl-phenyl)-4-methyl-5,6-dihydro-4H-[1,3]thiazin-2-ylamine], the “Aβ reductions in lumbar CSF” value in the series with Aβ in lumbar CSF (after oral dosing of 30 or 90 mg) is “Prominent and long-lasting Aβ reductions”. The safety and tolerability entry in the series on Aβ in lumbar CSF (Ph I) was “safe and well tolerated”.
